Values after ≈ are worked out from the molar mass of the structure shown. Active and inactive are the calls of the source. The rule behind the calls is not given here. Square brackets hold non-standard residues; d marks the D form. Peptide text beside a SMILES is read from it. Dab = NCC[C@H](N)C(=O)O
Key:
Streptococcus pneumoniae [1] = assay: Antibacterial activity against Streptococcus pneumoniae ATCC 49619 assessed as inhibition of bacterial growth incubated for 18 to 24 hrs; format: functional; details: time 18-24 hrs
[2] = Binding affinity to AgrC-I extra-loop-II (unknown origin) assessed as dissociation constant incubated for 10 mins by isothermal titration calorimetry analysis
Staphylococcus aureus [3] = assay: Bactericidal activity against Staphylococcus aureus ATCC 12600 assessed as inhibition of bacterial growth incubated for 18 to 24 hrs; format: functional; details: time 18-24 hrs
[4] = tested on: Staphylococcus epidermidis; assay: Antibacterial activity against Staphylococcus epidermidis ATCC 12228 assessed as inhibition of bacterial growth incubated for 18 to 24 hrs; format: functional; details: time 18-24 hrs
Homo sapiens [5] = species: Homo sapiens; assay: Binding affinity to AgrC-I extra-loop-II (unknown origin) assessed as change in entropy incubated for 10 mins by isothermal titration calorimetry analysis
RAW264.7 [6] = assay: Cytotoxicity against mouse RAW264.7 cells assessed as cell viability upto 125 uM incubated for 48 hrs by MTT assay; format: functional, cell-based
Escherichia coli [7] = assay: Bactericidal activity against Escherichia coli ATCC 25922 assessed as inhibition of bacterial growth incubated for 18 to 24 hrs; format: functional; details: time 18-24 hrs
RAW264.7 [8] = assay: Cytotoxicity against mouse RAW264.7 cells assessed as cell viability incubated for 48 hrs by MTT assay; format: functional
Erythrocyte = assay: Hemolytic activity in rat RBC assessed as hemolysis measured after 20 hrs; format: toxicity, cell-based
[9] = tested on: Staphylococcus saprophyticus; assay: Bactericidal activity against Staphylococcus saprophyticus ATCC BAA-750 assessed as inhibition of bacterial growth incubated for 18 to 24 hrs; format: functional; details: time 18-24 hrs
Homo sapiens [10] = species: Homo sapiens; assay: Binding affinity to AgrC-I extra-loop-III (unknown origin) assessed as change in entropy incubated for 10 mins by isothermal titration calorimetry analysis
Streptococcus mutans [11] = assay: Bactericidal activity against Streptococcus mutans ATCC 25175 assessed as inhibition of bacterial growth incubated for 18 to 24 hrs; format: functional; details: time 18-24 hrs
Homo sapiens [12] = species: Homo sapiens; assay: Binding affinity to AgrC-I extra-loop-I (unknown origin) assessed as gibbs free energy change incubated for 10 mins by isothermal titration calorimetry analysis
[13] = Binding affinity to AgrC-I extra-loop-II (unknown origin) assessed as change in enthalpy incubated for 10 mins by isothermal titration calorimetry analysis
Streptococcus pneumoniae [14] = assay: Bactericidal activity against Streptococcus pneumoniae ATCC 49619 assessed as inhibition of bacterial growth incubated for 18 to 24 hrs; format: functional; details: time 18-24 hrs
Staphylococcus aureus [15] = assay: Inhibition of biofilm formation in Staphylococcus aureus incubated for 24 hrs by crystal violet staining based microscopic analysis; format: functional, organism-based
Staphylococcus aureus [16] = assay: Antivirulence activity against Staphylococcus aureus assessed as downregulation of psm-alpha expression level at 1 to 100 uM incubated for 24 hrs by qRT-PCR analysis; format: functional, organism-based; details: dose 1-100 µM
Streptococcus mutans [17] = assay: Antibacterial activity against Streptococcus mutans UA159 assessed as inhibition of bacterial growth incubated for 18 to 24 hrs; format: functional; details: time 18-24 hrs
Staphylococcus aureus [18] = assay: Bactericidal activity against Staphylococcus aureus ATCC 6538p assessed as inhibition of bacterial growth incubated for 18 to 24 hrs; format: functional; details: time 18-24 hrs
[19] = Binding affinity to AgrC-I extra-loop-I (unknown origin) assessed as dissociation constant incubated for 10 mins by isothermal titration calorimetry analysis
[20] = Binding affinity to AgrC-I extra-loop-III (unknown origin) assessed as change in enthalpy incubated for 10 mins by isothermal titration calorimetry analysis
Staphylococcus aureus [21] = assay: Antivirulence activity against Staphylococcus aureus assessed as downregulation of hla expression level at 1 to 100 uM incubated for 24 hrs by qRT-PCR analysis; format: functional, organism-based; details: dose 1-100 µM
[22] = tested on: Staphylococcus epidermidis; assay: Bactericidal activity against Staphylococcus epidermidis ATCC 12228 assessed as inhibition of bacterial growth incubated for 18 to 24 hrs; format: functional; details: time 18-24 hrs
Cell membrane [23] = assay: Induction of cell membrane damage in Staphylococcus aureus ATCC 6538p assessed as increase in nucleic acid leakage measured up to 30 mins by UV-spectrophotometer analysis; format: subcellular
Streptococcus mutans [24] = assay: Bactericidal activity against Streptococcus mutans UA159 assessed as inhibition of bacterial growth incubated for 18 to 24 hrs; format: functional; details: time 18-24 hrs
Staphylococcus aureus [25] = assay: Antivirulence activity against Staphylococcus aureus assessed as downregulation of RNAIII expression level at 1 to 100 uM incubated for 24 hrs by qRT-PCR analysis; format: functional, organism-based; details: dose 1-100 µM
Staphylococcus aureus [26] = assay: Bactericidal activity against Staphylococcus aureus ATCC 43300 assessed as inhibition of bacterial growth incubated for 18 to 24 hrs; format: functional; details: time 18-24 hrs
Homo sapiens [27] = species: Homo sapiens; assay: Binding affinity to AgrC-I extra-loop-I (unknown origin) assessed as change in entropy incubated for 10 mins by isothermal titration calorimetry analysis
[28] = tested on: Staphylococcus saprophyticus; assay: Antibacterial activity against Staphylococcus saprophyticus ATCC BAA-750 assessed as inhibition of bacterial growth incubated for 18 to 24 hrs; format: functional; details: time 18-24 hrs
Staphylococcus aureus [29] = assay: Antibacterial activity against Staphylococcus aureus ATCC 43300 assessed as inhibition of bacterial growth incubated for 18 to 24 hrs; format: functional; details: time 18-24 hrs
Homo sapiens [30] = species: Homo sapiens; assay: Binding affinity to AgrC-I extra-loop-II (unknown origin) assessed as gibbs free energy change incubated for 10 mins by isothermal titration calorimetry analysis
Staphylococcus aureus [31] = assay: Antibacterial activity against Staphylococcus aureus ATCC 12600 assessed as inhibition of bacterial growth incubated for 18 to 24 hrs; format: functional; details: time 18-24 hrs
[32] = Binding affinity to AgrC-I extra-loop-I (unknown origin) assessed as change in enthalpy incubated for 10 mins by isothermal titration calorimetry analysis
Streptococcus mutans [33] = assay: Antibacterial activity against Streptococcus mutans ATCC 25175 assessed as inhibition of bacterial growth incubated for 18 to 24 hrs; format: functional; details: time 18-24 hrs
Escherichia coli [34] = assay: Antibacterial activity against Escherichia coli ATCC 25922 assessed as inhibition of bacterial growth incubated for 18 to 24 hrs; format: functional; details: time 18-24 hrs
Staphylococcus aureus [35] = assay: Antibacterial activity against Staphylococcus aureus ATCC 6538p assessed as inhibition of bacterial growth incubated for 18 to 24 hrs; format: functional; details: time 18-24 hrs
Homo sapiens [36] = species: Homo sapiens; assay: Binding affinity to AgrC-I extra-loop-III (unknown origin) assessed as gibbs free energy change incubated for 10 mins by isothermal titration calorimetry analysis
[37] = Binding affinity to AgrC-I extra-loop-III (unknown origin) assessed as dissociation constant incubated for 10 mins by isothermal titration calorimetry analysis
Cell membrane [38] = assay: Induction of cell membrane damage in Staphylococcus aureus ATCC 6538p assessed as increase in fluorescent intensity incubated for 30 mins by PI staining based flow cytometry assay
Staphylococcus aureus [39] = assay: Inhibition of biofilm formation in Staphylococcus aureus at 0.78 to 1.56 uM incubated for 24 hrs by crystal violet staining based analysis; format: functional, organism-based; details: dose 0.78-1.56 µM

| Compound | MIC (Streptococcus pneumoniae [1]) | Kd [2] | MBC (Staphylococcus aureus [3]) | MIC [4] | -TdeltaS (Homo sapiens [5]) | MBC (Escherichia coli [7]) | MBC [9] | -TdeltaS (Homo sapiens [10]) | MBC (Streptococcus mutans [11]) | deltaG (Homo sapiens [12]) | deltaH [13] | MBC (Streptococcus pneumoniae [14]) | MIC (Streptococcus mutans [17]) | MBC (Staphylococcus aureus [18]) | Kd [19] | deltaH [20] | MBC [22] | MBC (Streptococcus mutans [24]) | MBC (Staphylococcus aureus [26]) | -TdeltaS (Homo sapiens [27]) | further results |
| --- | --- | --- | --- | --- | --- | --- | --- | --- | --- | --- | --- | --- | --- | --- | --- | --- | --- | --- | --- | --- | --- |
| H-IKNLWKKMIKLWY-OH | 6.25 µM | 1e-09 mM | 6.25 µM | 1.56 µM | 27.9 kcal/mol | 3.13 µM | 6.25 µM | -15.6 kcal/mol | 12.5 µM | -16.4 kcal/mol | -44.2 kcal/mol | 12.5 µM | 6.25 µM | 3.13 µM | 0.001 nM | -0.775 kcal/mol | 3.13 µM | 12.5 µM | 6.25 µM | -16.3 kcal/mol | Activity (RAW264.7 [6]): inactive; CC50 (RAW264.7 [8]): > 125 µM; Activity (Erythrocyte): Non-Toxic; inhibition (Staphylococcus aureus [15]): Active; Activity (Staphylococcus aureus [16]): inactive; Activity (Staphylococcus aureus [21]): inactive; Activity (Cell membrane [23]): Active; Activity (Staphylococcus aureus [25]): inactive; MIC [28]: 3.13 µM; MIC (Staphylococcus aureus [29]): 6.25 µM; deltaG (Homo sapiens [30]): -16.4 kcal/mol; MIC (Staphylococcus aureus [31]): 3.13 µM; deltaH [32]: inactive; MIC (Streptococcus mutans [33]): 3.13 µM; MIC (Escherichia coli [34]): 3.13 µM; MIC (Staphylococcus aureus [35]): 3.13 µM; deltaG (Homo sapiens [36]): -16.4 kcal/mol; Kd [37]: 0.001 nM; Activity (Cell membrane [38]): Active |
| CC[C@H](C)[C@H](N)C(=O)N[C@@H](CC(N)=O)C(=O)N[C@@H](CCN)C(=O)N[C@@H](C)C(=O)N[C@@H](Cc1ccccc1)C(=O)N[C@@H](CC(C)C)C(=O)N[C@@H](CC(C)C)C(=O)NCC(=O)NCC(=O)NCC(=O)N[C@H](C(=O)N[C@@H](CCCCN)C(=O)N[C@@H](CC(N)=O)C(=O)N[C@@H](CC(C)C)C(=O)N[C@@H](Cc1c[nH]c2ccccc12)C(=O)N[C@@H](CCCCN)C(=O)N[C@@H](CCCCN)C(=O)N[C@@H](CCSC)C(=O)N[C@H](C(=O)N[C@@H](CCCCN)C(=O)N[C@@H](CC(C)C)C(=O)N[C@@H](Cc1c[nH]c2ccccc12)C(=O)N[C@@H](Cc1ccc(O)cc1)C(=O)O)[C@@H](C)CC)[C@@H](C)CC (H-IN[Dab]AFLLGGGIKNLWKKMIKLWY-OH) | 6.25 µM (≈ 16.9 µg/mL) | 3.78 mM | 6.25 µM (≈ 16.9 µg/mL) | 1.56 µM (≈ 4.22 µg/mL) | 12.3 kcal/mol | 6.25 µM (≈ 16.9 µg/mL) | 3.13 µM (≈ 8.47 µg/mL) | 70.6 kcal/mol | 6.25 µM (≈ 16.9 µg/mL) | -11.8 kcal/mol | -15.6 kcal/mol | 12.5 µM (≈ 33.8 µg/mL) | 6.25 µM (≈ 16.9 µg/mL) | 6.25 µM (≈ 16.9 µg/mL) | 2.05 nM | -80 kcal/mol | 3.13 µM (≈ 8.47 µg/mL) | 12.5 µM (≈ 33.8 µg/mL) | 12.5 µM (≈ 33.8 µg/mL) | -20.9 kcal/mol | inhibition (Staphylococcus aureus [39]): Active; MIC [28]: 3.13 µM (≈ 8.47 µg/mL); MIC (Staphylococcus aureus [29]): 6.25 µM (≈ 16.9 µg/mL); deltaG (Homo sapiens [30]): -3.31 kcal/mol; MIC (Staphylococcus aureus [31]): 3.13 µM (≈ 8.47 µg/mL); deltaH [32]: 9.06 kcal/mol; MIC (Streptococcus mutans [33]): 6.25 µM (≈ 16.9 µg/mL); MIC (Escherichia coli [34]): 3.13 µM (≈ 8.47 µg/mL); MIC (Staphylococcus aureus [35]): 3.13 µM (≈ 8.47 µg/mL); deltaG (Homo sapiens [36]): -9.36 kcal/mol; Kd [37]: 139 nM |

— ChEMBL document CHEMBL5376002, “A Hybrid Antimicrobial Peptide Targeting Staphylococcus aureus with a Dual Function of Inhibiting Quorum Sensing Signaling and an Antibacterial Effect” (J Med Chem, 2023)
